Reference: patent US6686385B2, “Anhydro sugar derivatives of indolocarbazoles” (Bristol-Myers Squibb Company, priority 2000, dated 2004)
pEC50, pIC50: −log10 of the molar value.

Experiments:
human topoisomerase I = biological target: T1, human topoisomerase I (Homo sapiens, UniProt P11387); assay: Topoisomerase I activity (in vitro): compound-induced, topoisomerase I-mediated single strand breaks in PM2 DNA; type: biochemical; details: purified human topoisomerase I (Topogen), 30 minutes at 37° C., median effective concentration for inducing single strand breaks, read-out: TOPO I EC50
T1 construct: purchased Topogen
T1 sequence (P11387 1-765): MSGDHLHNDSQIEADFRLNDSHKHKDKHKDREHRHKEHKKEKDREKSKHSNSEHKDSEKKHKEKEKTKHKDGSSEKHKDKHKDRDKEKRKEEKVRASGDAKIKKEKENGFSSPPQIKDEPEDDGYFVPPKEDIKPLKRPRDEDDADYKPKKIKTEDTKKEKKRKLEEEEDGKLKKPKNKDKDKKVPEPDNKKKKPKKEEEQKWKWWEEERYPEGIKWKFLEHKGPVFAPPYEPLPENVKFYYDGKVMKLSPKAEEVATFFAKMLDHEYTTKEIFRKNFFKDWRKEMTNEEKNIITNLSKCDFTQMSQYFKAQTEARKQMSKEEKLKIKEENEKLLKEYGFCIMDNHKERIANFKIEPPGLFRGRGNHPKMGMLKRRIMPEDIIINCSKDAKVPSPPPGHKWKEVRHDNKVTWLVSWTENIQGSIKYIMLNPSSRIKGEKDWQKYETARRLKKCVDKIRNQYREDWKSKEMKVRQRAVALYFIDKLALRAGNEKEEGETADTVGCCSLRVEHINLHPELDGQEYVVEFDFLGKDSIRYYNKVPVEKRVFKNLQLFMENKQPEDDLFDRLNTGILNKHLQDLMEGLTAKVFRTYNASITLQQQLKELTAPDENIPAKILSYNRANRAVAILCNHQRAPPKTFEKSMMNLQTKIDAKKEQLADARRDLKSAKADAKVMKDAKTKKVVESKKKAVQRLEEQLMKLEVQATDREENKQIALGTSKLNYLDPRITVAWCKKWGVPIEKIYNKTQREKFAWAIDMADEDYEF
Protocol: Topoisomerase I activity was measured as described below: The procedure for assaying compound-induced, topoisomerase I-mediated single strand breaks in DNA was essentially that described by Hsiang, et al., (J. Biol. Chem. 1985, 260,14873-14878). Samples dissolved in 100% DMSO as either […] or 10 mg/ml solutions, unless otherwise stated, were diluted in Tris-EDTA buffer. Marine bacteriophage PM2 DNA (Boehringer Mannheim) was also diluted in Tris-EDTA buffer to a concentration of 0.02 μg/μl. Different dilutions of compound being evaluated were mixed with diluted DNA and this mixture was added to 1000 unit (one unit of enzyme activity is defined as the amount capable of relaxing 100 ng of supercoiled DNA in approximately 30 minutes at 37° C.) aliquots of purified human topoisomerase I (Topogen) in 2×reaction buffer to start the reaction. The compound—DNA—enzyme mixture was incubated for 30 minutes at 37° C. before stopping the reaction with warm stop buffer containing sodium dodecyl sulfate and proteinase K (Sigma). These mixtures were allowed to incubate at 37° C. for another 10 minutes, at which time the mixtures were removed from the waterbath and extracted with a 24:1 mixture of chloroform/isoamyl alcohol. Following centrifugation, aliquots of the aqueous phases were placed in wells of a 0.9% agarose (SeaKem) gel in Tris-borate buffer containing 0.5 μg/ml of ethidium bromide and subjected to electrophbresis for 15 hours to separate the different topological isomers and nicked and broken DNAs. After destaining the gel in water, the ethidium bromide stained DNA reaction products were visualized by exposing the gel to UV irradiation. Negatives of photographs of the irradiated gels were scanned with a densitometer and areas under the peaks were calculated in order to obtain percent-single strand DNA break formation for each sample. A median effective concentration(EC50) was obtained for each compound by interpolation between points of the resulting dose-effect curve which defines the potency of the compound for its effect in inducing topoisomerase I-mediated single strand breaks in DNA.

murine P388 cell line = assay: In vitro cell-based cytotoxicity / proliferation inhibition (XTT assay); details: Mus musculus, 72 hrs incubation, absorbance at 450 nm
Protocol: The proliferation inhibition activity against murine P388 cell line was measured as follow. […] The cells were incubated at 37° C. for 72 hrs at which time the tetrazolium dye, XTT, containing phenazine methosulfate was added. A dehydrogenase enzyme in live cells reduoes the XTT to a form that absorbs light at 450 nm which can be quantitated spectrophotometrically. The greater the absorbance the greater the number of live cells. The results are expressed as an IC50 which is the drug concentration required to inhibit cell proliferation (i.e. absorbance at 450 nm) to 50% of that of untreated control cells.

| Compound | pEC50 (human topoisomerase I) | pIC50 (murine P388 cell line) | melting point |
| --- | --- | --- | --- |
| O=C1NC(=O)c2c1c1c3cc(F)ccc3[nH]c1c1c2c2cc(F)ccc2n1[C@H]1OC2COC([C@@H]2O)[C@H]1O (stereo partly drawn) [Example 2, 3,9-Difluoro-12,13-dihydro-13-[(3,6-anhydro)-α-D-glucopyranosyl]-5H-indolo[2,3-a]pyrrolo[3,4-c]carbazole-5,7(6H)-dione] | 6.44 | 7.41 | – |
| O=C1NC(=O)c2c1c1c3cc(F)c(F)cc3[nH]c1c1c2c2cc(F)c(F)cc2n1[C@@H]1O[C@@H]2CO[C@H]([C@H]1O)C2(F)F [Example 17, 2,3,9,10-Tetrafluoro-12-(3,6-anhydro-4-deoxy-4,4-difluoro-β-D-glucopyranosyl)-6,7,12,13-tetrahydro(5H)indolo[2,3-a]pyrrolo[3,4-c]carbazole-5,7-dione] | 4.82 | 6.62 | – |
| O=C1c2c(c3c4cc(F)ccc4n([C@@H]4OC5COC([C@@H]5O)[C@H]4O)c3c3[nH]c4ccc(F)cc4c23)C(=O)N1O (stereo partly drawn) [Example 3, 3,9-Difluoro-12,13-dihydro-13-[(3,6-anhydro)-β-D-glucopyranosyl]-5H-indolo[2,3-a]pyrrolo[3,4-c]carbazole-5,7(6-N-hydroxyl)-dione] | 7.85 | 7.84 | – |
| O=C1NC(=O)c2c1c1c3ccc(F)cc3[nH]c1c1c2c2ccc(F)cc2n1[C@@H]1O[C@@H]2CO[C@H]([C@H]1O)[C@@H]2O [Example 14, 12-(3,6-Anhydro-β-D-glucopyranosyl)-2,10-difluoro-12,13-dihydro-5H-indolo[2,3-a]pyrrolo[3,4-c]carbazole-5,7(6H)-dione] | 5.26 | 5.21 | > 300 °C |
| O=C1NC(=O)c2c1c1c3cc(F)ccc3[nH]c1c1c2c2cc(F)ccc2n1C1O[C@H](CO)[C@H]2O[C@H]2[C@H]1O (stereo partly drawn) [Example 8, 3,9-Difluoro-12,13-dihydro-13-[(3,4-anhydro)-β-D-glucopyranosyl]-5H-indolo[2,3-a]pyrrolo[3,4-c]carbazole-5,7(6H)-dione] | 7.74 | 8.28 | – |
| O=C1NC(=O)c2c1c1c3cc(F)ccc3[nH]c1c1c2c2cc(F)ccc2n1[C@@H]1OC2COC(C2)C1O (stereo partly drawn) [Example 11, 3,9-Difluoro-12,13-dihydro-13-[(3,6-anhydro-4-deoxy)-β-D-glucopyranosyl]-5H-indolo[2,3-a]pyrrolo[3,4-c]carbazole-5,7(6H)-dione] | 6.89 | 7.15 | – |
| O=C1NC(=O)c2c1c1c3ccc(F)cc3[nH]c1c1c2c2ccc(F)cc2n1[C@@H]1O[C@H](CO)[C@H]2O[C@H]2[C@H]1O [Example 12] | 6.24 | 6.97 | > 300 °C |
| O=C1NC(=O)c2c1c1c3cc(F)ccc3sc1c1c2c2cc(F)ccc2n1[C@H]1O[C@@H]2CO[C@H]([C@H]1O)[C@@H]2O [Example 13, 3,9-Difluoro-13-(3,6-anhydro-α-D-glucopyranosyl)-5H,13H-benzo[β]thienyl[2,3-a]pyrrolo[3,4-c]carbazole-5,7(6H)-dione] | 6.96 | 7.63 | > 305 °C |
| NN1C(=O)c2c(c3c4cc(F)ccc4n([C@@H]4OC5COC([C@@H]5O)[C@H]4O)c3c3[nH]c4ccc(F)cc4c23)C1=O (stereo partly drawn) [Example 4, 3,9-Difluoro-12,13-dihydro-13-[(3,6-anhydro)-β-D-glucopyranosyl]-5H-indolo[2,3-a]pyrrolo[3,4-c]carbazole-5,7(6-N-amino)-dione] | 8.00 | > 8.52 | – |
| O=C1NC(=O)c2c1c1c3cc(F)c(F)cc3[nH]c1c1c2c2cc(F)c(F)cc2n1[C@@H]1O[C@@H]2CO[C@@H](C2)[C@H]1O [Example 16, 2,3,9,10-Tetrafluoro-12-(3,6-anhydro-4-deoxy-β-D-glucopyranosyl)-6,7,12,13-tetrahydro(5H)indolo[2,3-a]pyrrolo[3,4-c]carbazole-5,7-dione] | – | 6.51 | – |
| O=C1NC(=O)c2c1c1c3cc(F)ccc3[nH]c1c1c2c2cc(F)ccc2n1[C@@H]1O[C@@H]2CO[C@H]([C@H]1O)[C@H]2O [Example 18, 3,9-Difluoro-12,13-dihydro-13-[(3,6-anhydro)-β-D-galactopyranosyl]-5H-indolo[2,3-a]pyrrolo[3,4-c]carbazole-5,7(6H)-dione] | 6.74 | 6.91 | – |
| O=C1NC(=O)c2c1c1c3cc(F)ccc3[nH]c1c1c2c2cc(F)ccc2n1[C@@H]1OC2COC(C2O)C1O (stereo partly drawn) [Example 1, 3,9-Difluoro-12,13-dihydro-13-[(3,6-anhydro)-β-D-glucopyranosyl]-5H-indolo[2,3-a]pyrrolo[3,4-c]carbazole-5,7(6H)-dione] | 7.07 | 7.03 | – |
| O=C1c2c(c3c4cc(F)ccc4n(C4O[C@H]5[C@H](OC[C@H]5O)[C@H]4O)c3c3[nH]c4ccc(F)cc4c23)C(=O)N1O (stereo partly drawn) [Example 6, 3,9-Difluoro-12,13-dihydro-13-[(2,6-dihydroxy)-(4,8-dioxa)-bicyclo[3.3.0]oct-3-yl]-5H-indolo[2,3-a]pyrrolo[3,4-c]carbazole-5,7(6-N-hydroxyl)-dione] | 8.00 | 7.85 | – |
| O=C1NC(=O)c2c1c1c3cc(F)ccc3[nH]c1c1c2c2cc(F)ccc2n1C1O[C@H](CF)[C@@H](F)[C@H]2O[C@@H]12 (stereo partly drawn) [Example 7, 3,9-Difluoro-12,13-dihydro-13-[(2,3-anhydro)-(4,6-difluoro)-β-D-glucopyranosyl]-5H-indolo[2,3-a]pyrrolo[3,4-c]carbazole-5,7(6H)-dione] | 6.24 | 6.31 | – |
